Reference: US4920118A, “Aromatic 2-aminoalkyl-1,2-benzoisothiazol-3-(2H)one-1,1-dioxide and their use as anxiolytic and anti-hypertensive agents” (Merrell Dow Pharmaceuticals Inc., priority 1989, dated 1990)
Read-outs that look alike come from different tables or passages of the source.

Tests used:
5-HT1A recognition sites = target: T1, 5-HT1A recognition sites (Rattus norvegicus, UniProt P19327); test: 5-HT1A radioligand binding, rat frontal cortex homogenate; settings: for Fold Increase (antilog of the difference of the test compound compared to buspirone): 5-HT1A binding potency relative to buspirone
T1 construct: male normotensive Sprague-Dawley rat frontal cortex was dissected, frozen in liquid nitrogen; from tissue; host or cells: frontal cortex of male normotensive Sprague-Dawley rats, washed homogenate
T1 sequence (P19327 1-422): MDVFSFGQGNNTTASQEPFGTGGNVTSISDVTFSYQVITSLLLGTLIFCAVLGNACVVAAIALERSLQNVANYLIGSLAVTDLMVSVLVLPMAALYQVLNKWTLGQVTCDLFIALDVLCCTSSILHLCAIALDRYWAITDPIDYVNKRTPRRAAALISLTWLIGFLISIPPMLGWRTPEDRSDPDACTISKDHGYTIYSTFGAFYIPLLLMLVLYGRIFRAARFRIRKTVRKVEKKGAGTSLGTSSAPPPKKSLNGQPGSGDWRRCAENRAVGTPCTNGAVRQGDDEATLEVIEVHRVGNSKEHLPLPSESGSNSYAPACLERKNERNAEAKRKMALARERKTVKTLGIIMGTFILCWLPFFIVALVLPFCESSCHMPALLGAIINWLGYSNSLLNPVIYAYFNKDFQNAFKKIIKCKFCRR
Method: Radioligand binding studies of the 5-HT1A recognition sites were carried out as follows: male normotensive Sprague-Dawley rat frontal cortex was dissected, frozen in liquid nitrogen and stored at -20° C. until needed. Tissues from 4-8 rats were pooled and homogenised in 70 vol Tris-HCl buffer (50 mM, pH 7.7), using a kinematica Polytron (setting 2/3 max speed, 20 sec). The homogenate was centrifuged (36500×g for 10 min), the pellet re-homogenised in the same volume of buffer and the process repeated two more times. Between the second and third centrifugations the tissue homogenate was incubated at 37° C. for 10 min. The final pellet was suspended in the same volume of Tris buffer containing 10M pargyline, 5.7 mM CaCl2 and 0.1% ascorbic acid. This suspension was incubated for 10 min at 37° C. and then stored on ice until used in the binding assay.
Tissue homogenate (0.7 ml), radioactive ligand (0.1 ml) and the appropriate concentration of test compound (0.1 ml), together with buffer to a final volume of 1 ml were incubated at 37° C. for 15 min. Incubations were terminated by rapid filtration through Whatman GF/B filters followed by three 5 ml washes with ice-cold Tris-HCl buffer (50 mM, pH 7.0). Radioactivity was measured after extraction into Aquasol-Z (NEN) at an efficiency of 45-50%. The radioligand used to label the 5-HT1A recognition sites and its concentration is [^3 H]-8-hydroxy-2-(di-n-propylamino)-tetralin, ([^3 H]-8-OH-DPAT), 1 mM.

[1] = system: anesthetized normotensive Sprague-Dawley rats; test: Blood pressure and heart rate in anesthetized normotensive rats; assay type: in vivo, rat
Method: Male, normotensive Sprague-Dawley rats weighing 250-350 g (supplied by Charles River, France) were anesthetized with pentobarbitone sodium, 60 mg/kg, i.p., plus 15 mg/kg s.c. Blood pressure was recorded either from the left common carotid artery or from a femoral artery by means of a Statham pressure transducer (Type P23 AA) and heart rate was recorded from the electrocardiogram using a Beckman cardiotachometer coupler (Type 9757 B). […] A femoral vein was cannulated for the intravenous injection of drugs. After completion of all operative procedures, heparin 500 U was injected intravenously.
The compounds of Example I, 2-[4-[(2,3-dihydro-1,4-benzodioxine-2-yl)methylamino]butyl]-1,2-benzoisothiazol-3(2H)one-1,1-dioxide was administered s.c. as a saline solution in a volume of 1 ml/kg body weight. The following changes in blood pressure (B.P.) and heart rate (H.R.) were observed.

[2] = system: conscious spontaneously hypertensive rats; test: Arterial blood pressure and heart rate in conscious spontaneously hypertensive rats; assay type: in vivo, rat; settings: for Δ BP / Δ HR: conscious SHR
Method: In a separate experiment arterial blood pressure and heart rate were measured directly in conscious male, spontaneously hypertensive rats weighing 250-350 g (Charles River, France). The same test compound was administered, either s.c. or orally, as a saline solution of 1 ml/kg body weight in the doses shown below.

[3] = [3H]-8-OH-DPAT, rat frontal cortex, mean ± S.E.M. of 3 independent experiments, read-out: 5-HT1A Binding Affinity Rat Brain Cortex (pIC50) (converted)

SMILES: O=C1c2ccccc2S(=O)(=O)N1CCCCNCC1COc2ccccc2O1 (stereo not drawn) [Example I, 2-[4-[(2,3-Dihydro-1,4-benzodioxin-2-yl)methylamino]butyl]-1,2-benzoisothiazol-3(2H)one-1,1-dioxide]
- Fold Increase (antilog of the difference of the test compound compared to buspirone) (5-HT1A recognition sites): 66
- IC50 (5-HT1A recognition sites; [3]): 0.457 nM
- Effect on blood pressure and heart rate (in words) [1]: effectively lowers the blood pressure and heart rate
- Δ BP ([1]; 25 μg/kg s.c.): -35 mmHg
- Δ HR ([1]; 25 μg/kg s.c.): -80 beats/min
- Δ BP ([1]; 500 μg/kg s.c.): -50 mmHg
- Δ HR ([1]; 500 μg/kg s.c.): -90 beats/min
- Δ BP ([2]; 100 μg/kg s.c.): -20 mmHg
- Δ HR ([2]; 100 μg/kg s.c.): +80 beats/min
- Δ BP ([2]; 200 μg/kg s.c.): -65 mmHg
- Δ HR ([2]; 200 μg/kg s.c.): +100 beats/min
- Δ BP ([2]; 500 μg/kg s.c.): -75 mmHg
- Δ HR ([2]; 500 μg/kg s.c.): +120 beats/min
- Δ BP ([2]; 1 mg/kg per os): -25 mmHg
- Δ HR ([2]; 1 mg/kg per os): +100 beats/min
- Δ BP ([2]; 5 mg/kg per os): -45 mmHg
- Δ HR ([2]; 5 mg/kg per os): +100 beats/min
- Effect on blood pressure and heart rate (in words) ([2]; conscious spontaneously hypertensive rats): lowers the blood pressure with reflex tachycardia

SMILES: O=C1c2ccccc2S(=O)(=O)N1CCCCN1CCc2c([nH]c3ccccc23)C1 [Example II, 2-[4-(2-[1,2,3,4]-tetrahydro-β-carbolinyl)butyl]-1,2-benzoisothiazol-3(2H)one-1,1-dioxide]
- IC50 (5-HT1A recognition sites): 6.92 nM
- Fold Increase (antilog of the difference of the test compound compared to buspirone) (5-HT1A recognition sites): 4.4

SMILES: COc1cccc2c1CC(NCCCCN1C(=O)c3ccccc3S1(=O)=O)CC2 (stereo not drawn) [Example III, 2-[4-[8-Methoxytetralin-2-amino]butyl]1,2-benzoisothiazol3(2H)one-1,1-dioxide]
- Fold Increase (antilog of the difference of the test compound compared to buspirone) (5-HT1A recognition sites): 10
- IC50 (5-HT1A recognition sites; [3]): 3.02 nM

SMILES: O=C1c2ccccc2S(=O)(=O)N1CCCCNCC1COc2ccccc2N1 (stereo not drawn) [Example V, 2-[4-[(2,3-Dihydro-1,4-benzoxazin-3-yl)methylamino]butyl]-1,2-benzoisothiazol-3-(2H)one-1,1-dioxide]
- Fold Increase (antilog of the difference of the test compound compared to buspirone) (5-HT1A recognition sites): 3.2
- IC50 (5-HT1A recognition sites; [3]): 9.33 nM
